Tests used:
Escherichia coli = assay: Antibacterial activity against Escherichia coli BW25113 assessed as reduction in bacterial growth measured every 20 mins for 16 hrs by serial broth dilution method; assay type: functional, organism-based
Klebsiella pneumoniae = assay: Antibacterial activity against Klebsiella pneumoniae ATCC 10031 assessed as reduction in bacterial growth measured every 20 mins for 16 hrs by serial broth dilution method; assay type: functional, organism-based

Row | Compound | IC50 (Escherichia coli) | IC50 (Klebsiella pneumoniae)
1 | CNc1cc(F)c(F)c2c1[nH]c1ncc(-c3cc(CN(C)C)c4ncc(C(=O)O)c(=O)n4c3)c(N3CCCC3)c12 | 663 nM | < 98 nM
2 | CNc1cc(F)c(F)c2c1[nH]c1ncc(-c3cc(C)c4ncc(C(=O)O)c(=O)n4c3)c(N(C)C)c12 | 262 nM | < 98 nM
3 | CNc1c(F)c(F)cc2c1[nH]c1ncc(-c3ccc4ncc(C(=O)O)c(=O)n4c3)c(N(C)C)c12 | 442 nM | < 98 nM
4 | CNc1cc(F)c(Cl)c2c1[nH]c1ncc(-c3ccc4ncc(C(=O)O)c(=O)n4c3)c(N(C)C)c12 | 458 nM | < 98 nM
5 | CNc1cc(F)c(F)c2c1[nH]c1ncc(-c3cc(CN4CCOCC4)c4ncc(C(=O)O)c(=O)n4c3)c(N(C)C)c12 | 523 nM | < 98 nM
6 | CNc1c(F)cc(F)c2c1[nH]c1ncc(-c3ccc4ncc(C(=O)O)c(=O)n4c3)c(N(C)C)c12 | 497 nM | < 98 nM

Source: ChEMBL document CHEMBL4680365, “Novel Oxopyrido[1,2-a]pyrimidine Compounds for Treating Bacterial Infection” (ACS Med Chem Lett, 2021)
